Experimental data taken from patent US9757484B2 (Otonomy, Inc., priority 2014, dated 2017).

Assays:
[1] = Loss on drying (form anhydrous/hydrate of ciprofloxacin); assay type: physicochemical; details: solid dried 40° C. oven 24 hours, then 125° C. oven one hour; weight loss due to 125° C.
Method: To assess the form of ciprofloxacin samples described in the present disclosure, a comparison experiment is conducted to evaluate the sample's loss of weight upon heating. […] The conditions and results of the experiment are summarized below:
Experimental Setup—Loss on Drying: • If suspension: Pipette cipro suspension onto filter on vacuum filter flask • Transfer filter/dry powder to 40° C. oven, hold 24 hours • Transfer solid to pre-weighed aluminum pan and weigh solid • Transfer pan to 125° C. oven, hold one hour • Weigh again and determine weight loss due to 125° C.

[2] = Particle size (D90) of ciprofloxacin; assay type: physicochemical
From the text: The final drug product has particle size of D90 of about 25 μm. […] In some embodiments, it is the use of a lower sterilization temperature and homogenization of the suspension during the sterilization process that contributes to the particle size distribution of ciprofloxacin in the suspension, and in the final product.

Weight Loss on Drying [1] [%]	particle size D90 ([2]; listed as Ciprofloxacin free base anhydrous API powder)	particle size D90 ([2]; listed as hydrate form)	SMILES
0.1	under 15 μm	–	O=C(O)c1cn(C2CC2)c2cc(N3CCNCC3)c(F)cc2c1=O [Sample 1, Ciprofloxacin]
11.1	–	around 60 μm	O=C(O)c1cn(C2CC2)c2cc(N3CCNCC3)c(F)cc2c1=O [Sample 2, Ciprofloxacin]
